Measurements from patent US9394295B2, “Antibacterial homopiperidinyl substituted 3,4-dihydro-1H-[1,8]naphthyridinones” (Janssen Sciences Ireland UC, priority 2011, dated 2016).
Converted amounts (≈) assume the structure as drawn. Like-named read-outs stand apart in the source and are kept apart here.

Legend:
[1] = test system: S. aureus ATCC 43300; test: MIC broth microdilution (CLSI), S. aureus ATCC 43300; assay type: cell-based; conditions: Staphylococcus aureus, ATCC 43300 / MRSA, reference strain MRSA
Experimental: (§1) Minimum Inhibitory Concentrations (MICs) were determined in accordance with the Clinical and Laboratory Standards Institute (CLSI) methodology against aerobic bacteria (CLSI M07-A8) (see Clinical and Laboratory Standards Institute. 2009. Methods for dilution antimicrobial susceptibility tests for bacteria that grow aerobically. CLSI document M07-A8, Vol. 29, No. 2.) by the broth microdilution method with cation-adjusted Mueller-Hinton broth (CA-MHB) medium for the majority of organisms, except for Haemophilus influenza, where Haemophilis test medium (HTM) broth was used. Descriptions of the individual organisms can be found in the table. Where possible, ATCC standard strains were tested.
(§2) The inoculum density for the susceptibility testing was standardized to give a final inoculum of approximately 5×10^5 CFU/mL.
(§3) Stock solutions of the compounds were prepared in DMSO at concentrations of 1 mg/mL. Linezolid was prepared in DMSO at a concentration of 2 mg/mL. Stock solutions of all compounds were diluted into CA-MHB to give a range of two-fold dilutions, depending upon the sensitivity of the organism being tested.

[2] = Cytotoxicity MTT assay (TOX HELAM); assay type: cell-based; conditions: human, HelaM cells, read-out: TOX HELAM (222.125) CC50
Experimental: Cytotoxicity of the compounds was evaluated using the MTT assay. Human HelaM cells grown in 96-well plates were exposed to serial dilutions of the tested compounds (final volume of 0.2 ml) and incubated for 72 hours at 37° C. and 5% CO2. Inhibitors are typically varied over the range of 25 to 0.8 μM. The final DMSO concentration in the assay is 0.5%. MTT (3-(4,5-Dimethylthiazol-2-yl)-2,5-diphenyltetrazolium bromide, a tetrazole) was added and reduced to purple formazan only in living cells. Solubilization of the formazan crystals was achieved by adding 100 μl 2-propanol. Cell viability was determined by measuring the absorbance of the reduced formazan, giving a purple color, at 540 nm and 690 nm. The absorbance measured at 690 nm was automatically subtracted from the absorbance at 540 nm, to eliminate the effects of non-specific absorption. The percent cytotoxicity achieved by the compounds was calculated according to standard methods. Cytotoxicity is reported as CC50, the concentration that causes a 50% reduction in cell viability.
The results are depicted in the table D2 below (TOX HELAM).

[3] = test system: Staphylococcus aureus ATCC 29213; test: Antibacterial susceptibility testing: IC90 determination (STA); assay type: cell-based; conditions: ATCC29213, S. aureus ATCC 29213, 90% inhibitory concentration for bacterial growth, read-out: STA (361.159) IC90
Experimental: The following bacteria were used: Staphylococcus aureus ATCC 29213, methicillin-resistant Staphylococcus aureus (MRSA) ATCC 700788 and Escherichia coli ATCC 35218. The bacteria used in this study were grown overnight in flasks containing 100 ml Mueller-Hinton broth (Difco cat. nr. 0757-17) in sterile de-ionized water, with shaking, at 37° C. Stocks were store at −70° C. until use.
Bacteria were incubated on a tryptic soy agar plate containing 5% sheep blood (Becton Dickinson cat. nr. 254053) for 18-24 hours at 35° C. in aerobic conditions (first passage). For the second passage, fresh Mueller-Hinton broth is inoculated with 5-10 colonies and grown overnight at 35° C. until turbidity (reaching log-phase) in aerobic conditions is reached. The bacterial suspension is then adjusted to 0.5 McFarland density and further diluted 1:100 in Mueller Hinton broth medium. This is used as inoculum.
MIC assays were performed by the broth microdilution method in a 96-well format (flat-bottom microtitre plates) with a final volume of 0.1 ml Mueller Hinton broth containing two-fold serial dilutions of compounds and inoculated with 5×10^5 CFU/ml of bacteria (standard inoculum size according to CLSI guidelines). Inhibitors are typically varied over the range of 63 to 0.49 μM. The final DMSO concentration in the assay was 1.25% (maximum tolerable DMSO concentration=6%). In the assays where the effect of human serum on the activity of the compounds against S. aureus was tested, human serum was added at a final concentration of 10%. The plates were incubated at 35° C. for 16-20 hours. At the end of incubation the bacterial growth was quantified fluorometrically. For this, resazurin was added to all wells and the plates were re-incubated. The incubation time is dependent on the type of bacteria. A change in color from blue to pink indicated the growth of bacteria. The fluorescence was read in computer-controlled fluorometer (Fluoroskan Ascent FL, Labsystems) at an excitation wavelength 540 nm and an emission wavelength of 590 nm. The % growth inhibition achieved by the compounds was calculated according to standard methods. The IC90 (expressed in μg/ml) was defined as the 90% inhibitory concentration for bacterial growth. A panel of reference compounds were simultaneously tested for QC approval.

[4] = test system: E. coli ATCC 25922; test: MIC broth microdilution (CLSI), E. coli ATCC 25922; assay type: cell-based; conditions: Escherichia coli, ATCC25922
Experimental: as §1, §2, §3

[5] = test system: H. influenza ATCC 49247; test: MIC broth microdilution (CLSI), H. influenza ATCC 49247; assay type: cell-based; conditions: Haemophilus influenzae, ATCC49247, HTM broth
Experimental: as §1, §2, §3

[6] = test system: M. catarrhalis ATCC 8176; test: MIC broth microdilution (CLSI), M. catarrhalis ATCC 8176; assay type: cell-based; conditions: Moraxella catarrhalis, ATCC8176
Experimental: as §1, §2, §3

[7] = In vivo pharmacokinetic and oral bioavailability; conditions: male Swiss mice; for half-life: read-out: Half life (t1/2) (converted)
Experimental: The in vivo pharmacokinetics and oral bioavailability of the compound of the examples was/is investigated in male Swiss mice (fed) following single intravenous (i.v.) bolus and oral (p.o.) administration. For the i.v. and p.o. solution formulations, the compound was/is dissolved in a 20% HP-β-CD solution. The pH of the formulations was/is around pH 4. All i.v. formulations were isotonic.

[8] = mouse, plasma, iv, i.v. 2.5 mg/kg
[9] = mouse, plasma, po, p.o. 10 mg/kg

Compound	MIC90 [1] [µg/mL]	CC50 at 72 h [2] [µg/mL]	IC90 [3] [µg/mL]	MIC90 [4] [µg/mL]	MIC90 [5] [µg/mL]	MIC90 [6] [µg/mL]	Vdz ([7]; i.v. 2.5 mg/kg) [L/kg]	AUC(0-inf) [7, 8] [ng·h/mL]	C0 ([7]; mouse, plasma, iv, i.v. 2.5 mg/kg, 20% HP-β-CD solution) [ng/mL]	half-life [7, 8] [h]	clearance ([7]; mouse, plasma, iv, i.v. 2.5 mg/kg, read-out: Plasma clearance Cl (converted)) [mL/min/kg]	bioavailability ([7]; mouse, plasma, po, p.o. 10 mg/kg vs i.v. 2.5 mg/kg) [%]	AUC(0-inf) [7, 9] [ng·h/mL]	Tmax [7, 9] [h]	Cmax ([7]; mouse, plasma, po, p.o. 10 mg/kg, 20% HP-β-CD solution) [ng/mL]	half-life [7, 9] [h]
O=C1CCc2cc(/C=C/C(=O)N3CCC=C(c4ccccc4)CC3)cnc2N1 [Co. No. 2]	0.06 (≈ 0.161 µM)	> 9.38	0.14 (≈ 0.375 µM)	> 32												
COc1ccc(F)cc1C1=CCCN(C(=O)/C=C/c2cnc3c(c2)CCC(=O)N3)CC1 [Co. No. 27]	0.06 (≈ 0.142 µM)	> 10.6	0.1 (≈ 0.237 µM)	> 8	> 8	1 (≈ 2.37 µM)	1.2	3560	3350	1.1	12.5	89	12600	0.5	4640	2
